Results as given in article PMC4450297, “Screening Active Compounds from Garcinia Species Native to China Reveals Novel Compounds Targeting the STAT/JAK Signaling Pathway” (BioMed Research International, 2015).

How the values were obtained:
Experiment in all cases: Cell panel screen (CellTiter-Glo)
Assay type in all cases: cell-based, human
[1] = test system: ChaGo-K-1; details: ChaGo-K-1 (Lung), 20 micromolar, 72 hrs
Description: (§1) All cells were obtained from the cell bank of the American Type Culture Collection (ATCC) and cultured in the supplier's recommended media supplemented with 10% FBS. The cell panel screen was measured using the CellTiter-Glo assay (Promega, Madison, WI) following a standard protocol. Briefly, cancer cells were seeded in 96-well plates and cultured overnight at 37°C with or without 5% CO2 in an incubator. Each compound was dissolved with limited DMSO and diluted to a certain concentration with culture medium and then added to the corresponding well of the cell plate. The final concentration of compound was 20 μM. The control cells (without treatment) received the same amount of DMSO and were incubated under the same conditions. After 72 h cultivation, 100 μL of the CellTiter-Glo reagent was added directly to each well for 10-minute incubation. The plate was then read on a FlexStation 3 microplate luminometer (Molecular Devices, USA) to monitor the luminescence signal generated by the luciferase-catalyzed reaction of luciferin and ATP. The percent of growth inhibition was calculated using the following formula: (untreated cells − treated cells)/(untreated cells − background without cells) ∗ 100.

[2] = test system: HCC1599; details: HCC1599 (Breast), 20 micromolar, 72 hrs
Description: as §1

[3] = test system: HEC-1-A; details: HEC-1-A (Uterus), 20 micromolar, 72 hrs
Description: as §1

[4] = test system: RL95; details: RL95 (Uterus), 20 micromolar, 72 hrs
Description: as §1

[5] = test system: BT-549; details: BT-549 (Breast), 20 micromolar, 72 hrs
Description: as §1

[6] = test system: NCI-H1623; details: NCI-H1623 (Lung), 20 micromolar, 72 hrs
Description: as §1

[7] = test system: CCF-STTG1; details: CCF-STTG1 (Brain), 20 micromolar, 72 hrs
Description: as §1

[8] = test system: C3A; details: C3A (Liver), 20 micromolar, 72 hrs
Description: as §1

[9] = test system: NCI-H2347; details: NCI-H2347 (Lung), 20 micromolar, 72 hrs
Description: as §1

[10] = test system: TCCSUP; details: TCCSUP (Urinary bladder), 20 micromolar, 72 hrs
Description: as §1

[11] = test system: MSTO-211-H; details: MSTO-211-H (Lung), 20 micromolar, 72 hrs
Description: as §1

[12] = test system: NCI-H1694; details: NCI-H1694 (Lung), 20 micromolar, 72 hrs
Description: as §1

[13] = test system: Colo 205; details: Colo 205, 20 micromolar, 72 hrs
Description: as §1

[14] = test system: NCI-H2405; details: NCI-H2405 (Lung), 20 micromolar, 72 hrs
Description: as §1

[15] = test system: HCC1569; details: HCC1569 (Breast), 20 micromolar, 72 hrs
Description: as §1

[16] = test system: Panc 03.27; details: Panc 03.27 (Pancreas), 20 micromolar, 72 hrs
Description: as §1

[17] = test system: A498; details: A498 (listed under Lung), 20 micromolar, 72 hrs
Description: as §1

[18] = test system: HPAF-II; details: HPAF-II (Pancreas), 20 micromolar, 72 hrs
Description: as §1

[19] = test system: Bel-7402; details: Bel-7402 (Liver), 20 micromolar, 72 hrs
Description: as §1

[20] = test system: M059J; details: M059J (Brain), 20 micromolar, 72 hrs
Description: as §1

[21] = test system: HGC-27; details: HGC-27 (Stomach), 20 micromolar, 72 hrs
Description: as §1

[22] = test system: HCC1937; details: HCC1937 (Breast), 20 micromolar, 72 hrs
Description: as §1

[23] = test system: SW13; details: SW13 (Adrenal gland), 20 micromolar, 72 hrs
Description: as §1

[24] = test system: CW-2; details: CW-2 (Colon), 20 micromolar, 72 hrs
Description: as §1

[25] = test system: J82; details: J82 (Urinary bladder), 20 micromolar, 72 hrs
Description: as §1

[26] = test system: T98G; details: T98G (Brain), 20 micromolar, 72 hrs
Description: as §1

[27] = test system: T47D; details: T47D (Breast), 20 micromolar, 72 hrs
Description: as §1

[28] = test system: BT-474; details: BT-474 (Breast), 20 micromolar, 72 hrs
Description: as §1

[29] = test system: NCI-H524; details: NCI-H524 (Lung), 20 micromolar, 72 hrs
Description: as §1

[30] = test system: HCC1395; details: HCC1395 (Breast), 20 micromolar, 72 hrs
Description: as §1

[31] = test system: NCI-H28; details: NCI-H28 (Lung), 20 micromolar, 72 hrs
Description: as §1

[32] = test system: C8166; details: C8166 (Leukemia), 20 micromolar, 72 hrs
Description: as §1

[33] = test system: HT-1197; details: HT-1197 (Urinary bladder), 20 micromolar, 72 hrs
Description: as §1

[34] = test system: ZR-75-30; details: ZR-75-30 (Breast), 20 micromolar, 72 hrs
Description: as §1

[35] = test system: A704; details: A704 (Kidney), 20 micromolar, 72 hrs
Description: as §1

[36] = test system: NCI-H1770; details: NCI-H1770 (Lung), 20 micromolar, 72 hrs
Description: as §1

| SMILES | Percent Inhibition [1] [%] | Percent Inhibition [2] [%] | Percent Inhibition [3] [%] | Percent Inhibition [4] [%] | Percent Inhibition [5] [%] | Percent Inhibition [6] [%] | Percent Inhibition [7] [%] | Percent Inhibition [8] [%] | Percent Inhibition [9] [%] | Percent Inhibition [10] [%] | Percent Inhibition [11] [%] | Percent Inhibition [12] [%] | Percent Inhibition [13] [%] | Percent Inhibition [14] [%] | Percent Inhibition [15] [%] | Percent Inhibition [16] [%] | Percent Inhibition [17] [%] | Percent Inhibition [18] [%] | Percent Inhibition [19] [%] | Percent Inhibition [20] [%] | also measured |
| --- | --- | --- | --- | --- | --- | --- | --- | --- | --- | --- | --- | --- | --- | --- | --- | --- | --- | --- | --- | --- | --- |
| CC(C)=CCc1c2c(c3oc4c(O)c(O)ccc4c(=O)c3c1O)C=CC(C)(C)O2 [Compound C-6] | 7 | 52 | 1 | 9 | -6 | -13 | 16 | 17 | 7 | 11 | 1 | 19 | 3 | -5 | 7 | 21 | 10 | -10 | 5 | -21 | Percent Inhibition [21]: 18%; Percent Inhibition [22]: 21%; Percent Inhibition [23]: 1%; Percent Inhibition [24]: 5%; Percent Inhibition [25]: 13%; Percent Inhibition [26]: 11%; Percent Inhibition [27]: 6%; Percent Inhibition [28]: -18%; Percent Inhibition [29]: -61%; Percent Inhibition [30]: 14%; Percent Inhibition [31]: 12%; Percent Inhibition [32]: 12%; Percent Inhibition [33]: 20%; Percent Inhibition [34]: 64%; Percent Inhibition [35]: -8%; Percent Inhibition [36]: 5% |
| O=C1c2c(O)cc(O)cc2OC(c2ccc(O)cc2)C1c1c(O)cc(O)c2c(=O)cc(-c3ccc(O)c(O)c3)oc12 (stereo not drawn) [WZ-4] | -14 | 8 | 10 | -2 | -12 | -15 | 0 | -2 | -4 | 3 | 6 | -10 | -6 | -14 | -17 | -16 | 4 | -10 | -3 | -1 | Percent Inhibition [21]: -4%; Percent Inhibition [22]: 0%; Percent Inhibition [23]: 5%; Percent Inhibition [24]: 11%; Percent Inhibition [25]: -5%; Percent Inhibition [26]: -2%; Percent Inhibition [27]: 6%; Percent Inhibition [28]: -5%; Percent Inhibition [29]: -18%; Percent Inhibition [30]: 16%; Percent Inhibition [31]: 0%; Percent Inhibition [32]: -3%; Percent Inhibition [33]: -4%; Percent Inhibition [34]: 8%; Percent Inhibition [35]: -1%; Percent Inhibition [36]: -10% |
| CC(C)=CCc1c(O)cc2oc3ccc(O)cc3c(=O)c2c1O [Ge-1] | 44 | 54 | 26 | 37 | 20 | 9 | 43 | 32 | 32 | 28 | 44 | 49 | 29 | 7 | 52 | 43 | 54 | 28 | 19 | 24 | Percent Inhibition [21]: 54%; Percent Inhibition [22]: 11%; Percent Inhibition [23]: 57%; Percent Inhibition [24]: 62%; Percent Inhibition [25]: 38%; Percent Inhibition [26]: 46%; Percent Inhibition [27]: 45%; Percent Inhibition [28]: 30%; Percent Inhibition [29]: 42%; Percent Inhibition [30]: 55%; Percent Inhibition [31]: 23%; Percent Inhibition [32]: 9%; Percent Inhibition [33]: 50%; Percent Inhibition [34]: 81%; Percent Inhibition [35]: 34%; Percent Inhibition [36]: 13% |
| CC(C)=CCc1c2c(c(O)c3c1O[C@]14C(=C[C@@H]5C[C@H]1C(C)(C)O[C@@]4(C/C=C(\C)CO)C5=O)C3=O)C=CC(C)(C)O2 [GB18] | 99 | 99 | 99 | 99 | 99 | 99 | 99 | 99 | 97 | 99 | 99 | 99 | 99 | 99 | 99 | 99 | 93 | 99 | 99 | 99 | Percent Inhibition [21]: 99%; Percent Inhibition [22]: 98%; Percent Inhibition [23]: 99%; Percent Inhibition [24]: 99%; Percent Inhibition [25]: 99%; Percent Inhibition [26]: 99%; Percent Inhibition [27]: 99%; Percent Inhibition [28]: 99%; Percent Inhibition [29]: 100%; Percent Inhibition [30]: 99%; Percent Inhibition [31]: 98%; Percent Inhibition [32]: 99%; Percent Inhibition [33]: 99%; Percent Inhibition [34]: 99%; Percent Inhibition [35]: 99%; Percent Inhibition [36]: 99% |
